Measured values published in US7833991B2, “Amine compound and use thereof” (Kureha Corporation, priority 2002, dated 2010).
Read-outs that look alike come from different tables or passages of the source.

What was measured:
[1] = system: HIV-1IIIB infected MT-4 cells; test: Antiviral activity in HIV-1IIIB infected MT-4 cells, MTT method (Test Examples 1 and 5); format: cell-based
Experimental: Immediately after infection, HIV-1IIIB infected MT-4 cells (3.0×10^4/well, MOI (Multiplicity of infection): 0.01) were added to a 96-well microtiter plate together with the test compounds having different concentrations. The cells were cultured in a carbon dioxide incubator at 37° C. for 5 days, and the number of living cells was measured in accordance with the MTT (tetrazolium) method (Pawels, et al., Journal of Virology Method, 20, 309-321 ([…])). The antiviral activity is represented by the concentration required for inhibition of cell disorder due to HIV by 50% (EC50: 50% Effective Concentration) (μM), and the results are shown in Table 2.
(§1) Compounds of the present invention having various substituted and unsubstituted heterocyclic rings for the substituent A2 of formula (1) were tested for antiviral (anti-HIV) activity as in Test Example 1 and for CXCR4 activity as in Test Example 2. The compounds, various substituents of the compounds, antiviral activity represented by the concentration required for inhibition of all disorder due to HIV injection by 50% (EC50: 50% Effective Concentration, μM), and CXCR4 activity calculated as a rate of inhibition of the binding between radioactive ligands and CXCR4 receptors by a test material (a binding-inhibition % at 0.1 μM) are shown in Table 5: […]

[2] = target: T1, CXCR4 (Homo sapiens, UniProt P61073); test: Inhibition of 125I-SDF-1α binding to receptors CXCR4 on MT-4 cells (Test Examples 2 and 5); settings: binding-inhibition % at 0.1 μM
T1 construct: endogenous in cells; host or cells: MT-4 cells
T1 sequence (P61073 whole entry): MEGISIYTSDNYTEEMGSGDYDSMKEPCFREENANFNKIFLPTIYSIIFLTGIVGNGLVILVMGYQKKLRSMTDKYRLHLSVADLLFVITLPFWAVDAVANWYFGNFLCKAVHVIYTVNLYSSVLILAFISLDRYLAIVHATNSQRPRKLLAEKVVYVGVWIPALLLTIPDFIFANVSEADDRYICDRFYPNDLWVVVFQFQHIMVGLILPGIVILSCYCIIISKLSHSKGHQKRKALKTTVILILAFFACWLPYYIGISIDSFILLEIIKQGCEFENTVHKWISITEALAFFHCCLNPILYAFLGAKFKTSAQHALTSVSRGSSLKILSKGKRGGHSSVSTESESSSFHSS
Experimental: MT-4 cells (5×10^6/0.2 ml/well) were cultured on a 24-well microtiter plate. After the cells were incubated for 24 hours at 37° C. in a carbon dioxide gas incubator, a culture medium was replaced with a buffer solution (0.1% BSA-containing RPMI-1640). Together with a ligand ^125I-SDF-1α, (specific activity: 2,200 Ci/mmol; available from Daiichi Pure Chemicals Co., Ltd. (Tokyo)), test materials with various concentrations were subjected to a binding reaction for 2 hours under ice-cooling. […] Then, a rate of inhibition of the binding between radio-active ligands and receptors CXCR4 by a test material was calculated (a binding-inhibition % at 0.1 μM).
as §1

[3] = system: ICR mice; test: Acute toxicity in mice, single administration via tail vein (Test Example 3); format: in vivo; settings: ICR mice (male), 2.5 mg/kg once
Experimental: The aforementioned compound was examined for acute toxicity. Specifically, 7-week-old ICR mice (male) were divided into several groups (4 or 5 mice in each group), and the mice were bred for 1 week for habituation. Subsequently, each of the compounds of Examples was dissolved in distilled water or physiological saline, and the solution was administered to the mice via tail vein (dose: 2.5 mg/kg) once. Then, dead mice were counted.

[4] = Human immunodeficiency virus 1, MT4, 120 h, concentration required for inhibition of cell disorder due to HIV by 50%, MT-4 cells, MOI 0.01, 5 days, MTT method, read-out: EC50
[5] = 125I-SDF-1α, MT-4 cells, 2 hours under ice-cooling, read-out: Inhibition rate (%)
[6] = Human immunodeficiency virus 1, MT4, as in Test Example 1, Table 5, read-out: HIV Activity EC50
[7] = as in Test Example 2, Table 5, read-out: CXCR4 Activity % at 0.1 μM

SMILES | EC50 [1, 4] [nM] | inhibition at 0.1 µM [2, 5] [%] | Dead mice/test mice [3] | EC50 [1, 6] [nM] | inhibition at 0.1 µM [2, 7] [%]
CCCN(CCC)CCCCNC(=O)c1ccc(CN(Cc2ncc[nH]2)Cc2ncc[nH]2)cc1 [Compound No. 1, 4-{[bis(1H-imidazol-2-ylmethyl)-amino]-methyl}-N-(4-dipropylamino-butyl)-benzamide] | 4 | 100 | 0/5 |  | 
CC(C)CN(CCCCNC(=O)c1ccc(CN(Cc2ncc[nH]2)Cc2ncc[nH]2)cc1)CC(C)C [Compound No. 2, 4-{[bis(1H-imidazol-2-ylmethyl)-amino]-methyl}-N-(4-diisobutylamino-butyl)-benzamide] | 3 | 100 | 0/5 |  | 
NCCCCNC(=O)c1ccc(CN(Cc2ncc[nH]2)Cc2ncc[nH]2)cc1 [Compound No. 3, 4-{[bis(1H-imidazol-2-ylmethyl)-amino]-methyl}-N-(4-aminobutyl)-benzamide] | 3 | 100 | 0/5 |  | 
O=C(NCCCCNCc1ccccc1C(F)(F)F)c1ccc(CN(Cc2ncc[nH]2)Cc2ncc[nH]2)cc1 [Compound No. 11, 4-{[bis(1H-imidazol-2-ylmethyl)-amino]-methyl}-N-[4-(2-trifluoromethyl)-benzylamino-butyl]-benzamide] | 23 | 95 | 0/5 |  | 
O=C(NCCCCNCc1ccccc1OC(F)(F)F)c1ccc(CN(Cc2ncc[nH]2)Cc2ncc[nH]2)cc1 [Compound No. 12, 4-{[bis(1H-imidazol-2-ylmethyl)-amino]-methyl}-N-[4-(2-trifluoromethoxy)-benzylamino-butyl]-benzamide] | 49 | 95 | 0/5 |  | 
CCCN(CCC)Cc1ccc(NC(=O)c2ccc(CN(Cc3ncc[nH]3)Cc3ncc[nH]3)cc2)cc1 [Compound No. 19, 4-{[bis(1H-imidazol-2-ylmethyl)-amino]-methyl}-N-(4-dipropylaminomethylphenyl)-benzamide] | 2 | 100 | 0/5 |  | 
CCCN(CCC)CCCCNCc1ccc(CN(Cc2ncc[nH]2)Cc2ncc[nH]2)cc1 [Compound No. 25, N-(4-{[bis(1H-imidazol-2-ylmethyl)-amino]-methyl}-benzyl)-N′,N′-dipropylbutane-1,4-diamine] | 2 | 100 | 0/5 |  | 
CCCN(CCC)Cc1ccc(NC(=O)c2ccc(CN(Cc3ncc[nH]3)Cc3nccn3C)cc2)cc1 [Compound No. 49, N-(4-dipropylaminomethylphenyl)-4-{[(1H-imidazol-2-ylmethyl)-(1-methyl-1H-imidazol-2-ylmethyl)-amino]-methyl}-benzamide] | 2 | 100 | 0/5 | 2 | 100
CCCN(CCC)Cc1ccc(NC(=O)c2ccc(CN(Cc3ncc[nH]3)Cc3nc4ccccc4[nH]3)cc2)cc1 [Compound No. 61, N-(4-dipropylaminomethylphenyl)-4-{[(1H-imidazol-2-ylmethyl)-(1H-benzimidazol-2-ylmethyl)-amino]-methyl}-benzamide] | 2 | 100 | 0/5 | 2 | 100
CCCN(CCC)CCCCNCc1ccc(CN(Cc2ccc(C)cn2)Cc2ncc[nH]2)cc1 [Compound No. 75, N-(4-{[(1H-imidazol-2-ylmethyl)-(5-methylpyridine-2-ylmethyl)-amino]-methyl}-benzyl)-N′,N′-dipropylbutane-1,4-diamine] | 2 | 100 | 0/5 |  | 
CCCN(CCC)CCCCN(C)Cc1ccc(CN(Cc2ncc[nH]2)Cc2nccn2C)cc1 [Compound No. 98, N-(4-{[(1H-imidazol-2-ylmethyl)-(1-methyl-1H-imidazol-2-ylmethyl)-amino]-methyl}-benzyl)-N-methyl-N′,N′-dipropylbutane-1,4-diamine] | 3 | 100 | 0/5 |  | 
CN(CCCCNS(=O)(=O)c1ccc(CN(Cc2ncc[nH]2)Cc2nccn2C)cc1)C1CCCCC1 [Compound No. 109, N-[4-(cyclohexyl-methyl-amino)-butyl]-4-{[(1H-imidazol-2-ylmethyl)-(1-methyl-1H-imidazol-2-ylmethyl)-amino]-methyl}-benzenesulfonamide] | 2 | 100 | 0/5 |  | 
CCCN(CCC)CCCCN(C)Cc1ccc(CN(Cc2ncc[nH]2)Cc2nnc[nH]2)cc1 [Compound No. 116, N-(4-{[(imidazol-2-ylmethyl)-([1,2,4]-triazol-3-ylmethyl)-amino]-methyl}-benzyl)-N-methyl-N′,N′-dipropylbutane-1,4-diamine] | 2 | 100 | 0/5 |  | 
